# What was measured:
# [1] = test system: SNHG17-overexpressing breast cancer cells (MCF-7); assay: Sensitivity detection of breast cancer cells to fulvestrant (MTT); assay type: cell-based, human; conditions: fulvestrant 2, 4, 8, 16 μmol/L, 48 h, SNHG17-overexpressing cells vs control cells (FIG. 5)
# Procedure: MCF-7 and SNHG17 overexpressing breast cancer cells in the logarithmic growth phase were inoculated into 96-well plates (with DMEM complete medium) at a density of 3000 cells per well. Then cells were cultured in a 37° C. 5V/V % CO2 incubator until the cells adhered to the plates. Then added fulvestrant respectively, and the final concentration was 0 (cell control group), 2, 4, 8, and 16 μmol/L. Each concentration was set in 4 duplicate wells, and a blank control group was set at the same time. After being cultured for 48 hours in a 37° C., 5V/V % CO2 incubator, 20 μL of MTT (5 g/L) solution was added to each well. After culturing for 4 hours, discarded the medium and added triple solution (10 g SDS, 5 mL of isobutanol, 0.1 mL of 10M hydrochloric acid, and ddH2O to make a 100 mL solution) and incubated overnight. Then the absorbance (A570 nm) value was measured at 570 nm with an enzyme calibration. The triple solution was used as a blank control group to detect the cells' survival rate. Growth inhibition rate (%)=(control group A570 nm—experimental group A570 nm)/cell control group A570 nm×100%. The growth inhibition rate of fulvestrant on breast cancer cells is shown in FIG. 5, wherein C stands for SNHG17-overexpressing control breast cancer cells, D stands for SNHG17-overexpressing breast cancer cells, *P<0.05, **P<0.01 indicates the data had statistical significance.
# [2] = test system: SNHG17-overexpressing breast cancer cells (MCF-7); assay: Plate colony formation experiment, fulvestrant resistance of SNHG17-overexpressing cells; assay type: cell-based, human; conditions: medium containing 6 μmol/L fulvestrant, 15 days; SNHG17-overexpressing cells vs SNHG17-overexpressing control cells (FIG. 4)
# Procedure: The above-mentioned SNHG17-overexpressing control breast cancer cells and SNHG17-overexpressing breast cancer cells were selected for experiments to detect the drug resistance to fulvestrant. 1000 well-grown cells were inoculated into a culture plate (diameter 60 mm) containing DMEM complete medium, then gently shook the culture plate to disperse the cells evenly. The cells were incubated at 37° C., 5V/V % CO2 for 15 days, and replaced complete medium every 3 days. When colonies were visible to the naked eye in the culture dish, the culture was terminated and the culture medium was discarded. After that, the cells were carefully washed twice by PBS and dried. Methanol was used for anchor cells for 15 min, then the methanol was discarded and cells were air-dried. Cells were stained with Giemsa staining solution (purchased from Merck) for 10 min, then the staining solution was slowly washed away with running water, and cells were air-dried. Experiments were divided into blank group (SNHG17-overexpressing control breast cancer stable cells, medium containing 6 μmol/L DMSO), control group (SNHG17-overexpressing control breast cancer cells, medium containing 6 μmol/L fulvestrant), overexpression group (SNHG17-overexpressing breast cancer cells, medium containing 6 μmol/L fulvestrant) 3 groups. […]
structure (smiles),measurement,setting,value
C[C@]12CC[C@@H]3c4ccc(O)cc4C[C@@H](CCCCCCCCC[S+]([O-])CCCC(F)(F)C(F)(F)F)[C@H]3[C@@H]1CC[C@@H]2O (some centres unmarked) [fulvestrant],growth inhibition rate of fulvestrant on breast cancer cells,[1],significantly greater than that in SNHG17-overexpressing control breast cancer cells
same,number of colonies formed,[2],greater than that of SNHG17-overexpressing control breast cancer cells
